Experimental data as given in patent US8569288B2, “Thienotriazolodiazepine derivatives active on apo A” (CircoMed LLC, priority 2008, dated 2013).

What was measured:
[1] = test system: apo A1 secretion in human hepatocytes; test: Apo A1 secretion by human hepatocytes (ELISA of supernatant, normalised to cell protein); assay type: cell-based; details: for Apo A1 (ng secreted per mg cell protein), 1st / Apo A1 (ng secreted per mg cell protein), 2nd / Apo A1 (ng secreted per mg cell protein), mean: 3x24 h; for Apo A1 (ng secreted per mg cell protein), 1st: 1st parallel measurement; for Apo A1 (ng secreted per mg cell protein), 2nd: 2nd parallel measurement; for Apo A1 (ng secreted per mg cell protein), mean: mean of two measurements
Method: Human hepatocytes were isolated from pieces of livers, obtained from donors which could not be used for transplantation, following the procedure described in U.S. Pat. No. 6,444,664. The cells were seeded on culture dishes at a density of 1.5×10^5 viable cells per cm^2 and were maintained for the first 24 h in 1.5 mL per 10 cm^2 of Williams E medium supplemented with 10% heat inactivated fetal calf serum (FCS), 2 mmol/L L-glutamine, 20 mU/mL insulin (135 nmol/L), 50 nmol/L dexamethasone, 100 U/mL penicillin, 100 μg/mL streptomycin and 100 μg/mL kanamycin at 37° C. in a 5% CO2/95% air atmosphere. After 14-16 h the non-adherent cells were washed from the plates, using the same culture medium as described above. 24 h after seeding, the incubations with the compounds were started in 1 mL of the same culture medium, but with an insulin concentration of 10 nmol/L instead of 135 nmol/L.
The human hepatocytes were treated with compounds 5, 6 and 7 (dissolved in DMSO, with the final concentration of DMSO not exceeding 0.1% v/v) at concentrations of 100 μM, 30 μM, 10 μM and 3 μM and incubated for 24 hours. The DMSO concentration in all samples and controls was 0.1%. The control wells contained DMSO (0.1% v/v) alone. The medium on the cells was removed and replaced with fresh medium with fresh compound and incubated for 24 hours. The medium was then again removed and replaced with fresh medium with fresh compound and incubated for another 24 hours. The supernatant was then removed from the cells and levels of apo A1 were determined using a commercially available ELISA (AlerCHEK™) with a HRP conjugated goat anti-apo A1 antibody and TMB/peroxidase substrate colour developer. Supernatants were diluted 1:4 with the wash buffer provided in the kit.
After the last incubation the cells were washed twice with PBS, and BCA (bicinchoninic acid) reagent was added to each well to assay total cellular protein according to standard methods.

[2] = test system: central benzodiazepine receptor (BZD); test: Binding to central benzodiazepine receptor, [3H]flunitrazepam displacement on rat cerebral cortex membranes
Method: Affinity of the compounds of the invention to the central benzodiazepine receptor (BZD) was measured by determining the binding of 0.4 nM [^3H]flunitrazepam to rat cerebral cortex membranes, and its displacement by compounds of the invention as compared to the reference ligand diazepam, at 4° C. for 60 min, as described by R. C. Speth et al., Life Sci. 24:351-358 (1979).
The specific binding to the receptors is defined as the difference between the total binding and the non-specific binding determined in the presence of an excess of unlabeled ligand (diazepam). The results are expressed as a percent of control specific binding ((measured specific binding/control specific binding)×100) obtained in the presence of compound 5, 6 and 7.
In each experiment, the respective reference compound was tested concurrently with compound 5, 6 and 7 in order to assess the assay suitability. It was tested at several concentrations (for IC50 value determination).

[3] = test system: plasma apolipoprotein A1 (apo A1); details: as described in U.S. Pat. No. 5,854,238; cited from earlier work
[4] = 10^−5 M, 0.4 nM [3H]flunitrazepam
[5] = 10^−6 M, 0.4 nM [3H]flunitrazepam
[6] = 10^−7 M, 0.4 nM [3H]flunitrazepam
[7] = 10^−8 M, 0.4 nM [3H]flunitrazepam

Cc1nnc2n1-c1sccc1C(c1ccccc1)=NC2 [compound 7, 9-Methyl-4-phenyl-6H-thieno[3,2-f]-s-triazolo[4,3-a][1,4]diazepine, reference compound]
Apo A1 (ng secreted per mg cell protein), 1st ([1]; 3 μM): 91 ng secreted per mg cell protein
Apo A1 (ng secreted per mg cell protein), 2nd ([1]; 3 μM): 91 ng secreted per mg cell protein
Apo A1 (ng secreted per mg cell protein), mean ([1]; 3 μM): 91 ng secreted per mg cell protein
Apo A1 (ng secreted per mg cell protein), 1st ([1]; 10 μM): 266 ng secreted per mg cell protein
Apo A1 (ng secreted per mg cell protein), 2nd ([1]; 10 μM): 191 ng secreted per mg cell protein
Apo A1 (ng secreted per mg cell protein), mean ([1]; 10 μM): 229 ng secreted per mg cell protein
Apo A1 (ng secreted per mg cell protein), 1st ([1]; 30 μM): 236 ng secreted per mg cell protein
Apo A1 (ng secreted per mg cell protein), 2nd ([1]; 30 μM): 374 ng secreted per mg cell protein
Apo A1 (ng secreted per mg cell protein), mean ([1]; 30 μM): 305 ng secreted per mg cell protein
Apo A1 (ng secreted per mg cell protein), 1st ([1]; 100 μM): 254 ng secreted per mg cell protein
Apo A1 (ng secreted per mg cell protein), 2nd ([1]; 100 μM): 364 ng secreted per mg cell protein
Apo A1 (ng secreted per mg cell protein), mean ([1]; 100 μM): 309 ng secreted per mg cell protein
Stimulation of apo A1 secretion versus control level (in words) ([1]; at concentrations as low as 3 μM, human hepatocytes): clearly less active
Affinity to the benzodiazepine receptor (in words) [2]: moderate affinity
IC50 ([2]; 0.4 nM [3H]flunitrazepam, rat cerebral cortex membranes, read-out: IC50 of displacing the labelled ligand): ~500 nM
% of control specific binding, 1st [2, 4]: 2.3 % of control specific binding
% of control specific binding, 2nd [2, 4]: 1.8 % of control specific binding
% of control specific binding, mean [2, 4]: 2.1 % of control specific binding
% of control specific binding, 1st [2, 5]: 18.9 % of control specific binding
% of control specific binding, 2nd [2, 5]: 17.9 % of control specific binding
% of control specific binding, mean [2, 5]: 18.4 % of control specific binding
% of control specific binding, 1st [2, 6]: 73.5 % of control specific binding
% of control specific binding, 2nd [2, 6]: 68.0 % of control specific binding
% of control specific binding, mean [2, 6]: 70.7 % of control specific binding
% of control specific binding, 1st [2, 7]: 89.0 % of control specific binding
% of control specific binding, 2nd [2, 7]: 104.1 % of control specific binding
% of control specific binding, mean [2, 7]: 96.5 % of control specific binding
Activity in increasing plasma apo A1 (in words) [3]: active in increasing plasma apolipoprotein A1
